According to patent US11884627B2, “Compounds and compositions for treating conditions associated with LPA receptor activity” (Lhotse Bio, Inc., priority 2022, dated 2024):
Read-outs that look alike come from different tables or passages of the source.

Target: T1, human LPA1 (Homo sapiens, UniProt Q92633)
T1 construct: expressed in transfected cells; host or cells: CHO-K1
Test: In vitro LPA1 calcium flux antagonist assay - Bioduro protocol
Format: cell-based
Details: CHO-K1 cells overexpressing human LPA1 and G15a, LPA challenge at EC80
Experimental: In Vitro LPA1 Calcium Flux Antagonist Assay—Bioduro Protocol
CHO-K1 cells overexpressing human LPA1 and G15a were seeded at a total volume of 20 μL (15000 cells/well) into Matrigel pre-coated 384-well plates (corning −3764) and incubated at 37° C. After overnight incubation, the cells were serum starved for 4 h. Assays were performed in dye loading buffer containing 1× Fluo-8 AM (AAT Bioquest, 21080) and 2.5 mM probenecid (Thermo Fisher, 36400) in HBSS/20 mM Hepes. After cell starvation, the medium was replaced with 20 μL of dye loading buffer and incubated at 37° C., for 30 min. Then 5 μL of 5× compound titrated in dye loading buffer was added to the cells and incubated for 30 min followed by LPA challenge at EC80. Calcium mobilization was measured on a FLIPR Tetra (MSD). For LPA EC80 determination, starved cells were incubated with 20 μL of dye loading buffer for 1 h, then 5 μL of 5×LPA titrated in dye loading buffer was added to the cells. Calcium signals induced by LPA was monitors on a FLIPR.
Percentage inhibition is calculated using the following formula: % Inhibition=100%×(1−(mean RFU of test sample−mean RFU of DMSO)/(mean RFU of LPA control−mean RFU of DMSO)).
Table B3 and Table B4 show the biological activity of compounds in in vitro LPA1 Calcium flux antagonist assay—Bioduro protocol.

[1] = calcium mobilization on FLIPR Tetra, read-out: IC50
[2] = Table B3, read-out: Activity (IC50 class)

T1 sequence (Q92633 whole entry): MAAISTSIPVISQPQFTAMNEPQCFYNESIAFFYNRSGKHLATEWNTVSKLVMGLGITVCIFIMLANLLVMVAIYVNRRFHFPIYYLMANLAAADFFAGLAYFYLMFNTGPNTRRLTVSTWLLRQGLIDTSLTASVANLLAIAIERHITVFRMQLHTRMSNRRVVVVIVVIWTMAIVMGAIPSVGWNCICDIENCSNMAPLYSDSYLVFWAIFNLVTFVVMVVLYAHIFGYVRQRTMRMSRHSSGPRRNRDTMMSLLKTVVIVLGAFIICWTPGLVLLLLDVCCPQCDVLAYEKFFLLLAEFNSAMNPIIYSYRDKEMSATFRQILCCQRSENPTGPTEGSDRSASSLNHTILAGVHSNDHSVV

`COc1cc(-c2ccc(NC3(C(=O)O)CCOCC3)cc2CO[C@@H]2CCC[C@H]2OC)c(C)c(OC)c1C` (racemic) [Compound 204] gave an IC50 [1] of 163 nM and an IC50 [2] of 100 to 1000 nM.
Work on `COc1cc(-c2ccc(NC3(C(=O)O)CC(OC)C3)cc2COC2Cc3ccccc3C2)cc(OC)c1C` (single isomer, unassigned) [Compound 125] yielded an IC50 [1] of 116 nM and an IC50 [2] of 100 to 1000 nM.
In the case of `COc1cc(-c2ccc(NC3(C(=O)O)CC(OC)C3)cc2COC2Cc3ccccc3C2)cc(OC)c1C` (single isomer, unassigned) [Compound 126], the IC50 [1] is reported as 32.1 nM and the IC50 [2] is reported as under 100 nM.
`COc1cc(OC)cc(-c2ccc(NC3(C(=O)O)CCOCC3)cc2COC2COc3ccccc32)c1` (single isomer, unassigned) [Compound 158] gave an IC50 [1] of 46.3 nM and an IC50 [2] of under 100 nM.
`COc1cc(OC)cc(-c2ccc(NC3(C(=O)O)CCOCC3)cc2COC2COc3ccccc32)c1` (single isomer, unassigned) [Compound 159] was tested, and the IC50 [1] was over 10000 nM and the IC50 [2] was over 1000 nM.
Molecule `COc1cc(-c2ccc(NC3(C(=O)O)CCOCC3)cc2CCC2CCOC2)cc(OC)c1C` (single isomer, unassigned) [Compound 186, 4-((3′,5′-dimethoxy-4′-methyl-2-(2-(tetrahydrofuran-3-yl)ethyl)-[1,1′-biphenyl]-4-yl)amino)tetrahydro-2H-pyran-4-carboxylic acid] has an IC50 [1] of 64.3 nM and an IC50 [2] of under 100 nM.
For `COc1cc(-c2ccc(NC3(C(=O)O)CCCOC3)cc2COC2CCCC2)c(C)c(OC)c1C` (single isomer, unassigned) [Compound 200], the IC50 [1] was 772 nM and the IC50 [2] was 100 to 1000 nM.
Molecule `COc1cc(-c2ccc(NC3(C(=O)O)CCCOC3)cc2COC2CCCC2)c(C)c(OC)c1C` (single isomer, unassigned) [Compound 201] has an IC50 [1] of 73.2 nM and an IC50 [2] of under 100 nM.
In the case of `COc1cc(-c2ccc(NC3(C(=O)O)CCOCC3)cc2COC2COc3ccccc32)cc(OC)c1C` (single isomer, unassigned) [Compound 216], the IC50 [1] is reported as 18.6 nM and the IC50 [2] is reported as under 100 nM.
With `COc1cc(-c2ccc(NC3(C(=O)O)CCOCC3)cc2COC2COc3ccccc32)cc(OC)c1C` (single isomer, unassigned) [Compound 217] the IC50 [1] was 584 nM and the IC50 [2] was 100 to 1000 nM.
`COc1cc(-c2ccc(NC3(C(=O)O)CCOCC3)cc2COC2COc3ccccc32)c(F)c(OC)c1C` (single isomer, unassigned) [Compound 223] showed an IC50 [1] of 4.76 nM and an IC50 [2] of under 100 nM.
Molecule `COc1cc(-c2ccc(NC3(C(=O)O)CCOCC3)cc2COC2COc3ccccc32)c(F)c(OC)c1C` (single isomer, unassigned) [Compound 224] has an IC50 [1] of 158 nM and an IC50 [2] of 100 to 1000 nM.
`COc1cc(-c2ccc(NC3(C(=O)O)CCC(C)(OC)CC3)cc2COC2CCCC2)c(F)c(OC)c1C` (single isomer, unassigned) [Compound 237] was tested, and the IC50 [1] was 63.6 nM and the IC50 [2] was under 100 nM.
`COc1cc(-c2ccc(NC3(C(=O)O)CCC(C)(OC)CC3)cc2COC2CCCC2)c(F)c(OC)c1C` (single isomer, unassigned) [Compound 238] showed an IC50 [1] of 268 nM and an IC50 [2] of 100 to 1000 nM.
`COc1c(C(C)OC)ccc(-c2ccc(NC3(C(=O)O)CCOCC3)cc2COC2CCCC2)c1C` (single isomer, unassigned) [Compound 241] showed an IC50 [1] of 87 nM and an IC50 [2] of 100 to 1000 nM.
`COc1c(C(C)OC)ccc(-c2ccc(NC3(C(=O)O)CCOCC3)cc2COC2CCCC2)c1C` (single isomer, unassigned) [Compound 242] showed an IC50 [1] of 266 nM and an IC50 [2] of 100 to 1000 nM.
Work on `COc1cc(-c2ccc(NCCC(=O)O)cc2COCCc2ccccc2)cc(OC)c1C` [Compound 106] yielded an IC50 [1] of 3480 nM and an IC50 [2] of over 1000 nM.
`COc1cc(-c2ccc(N(C)CCC(=O)O)cc2COC2Cc3ccccc3C2)cc(OC)c1C` [Compound 107] gave an IC50 [1] of 2580 nM and an IC50 [2] of over 1000 nM.
With `COc1cc(-c2ccc(NCC(=O)O)cc2COC2Cc3ccccc3C2)cc(OC)c1C` [Compound 108] the IC50 [1] was 1880 nM and the IC50 [2] was over 1000 nM.
`COc1cc(-c2ccc(NC3(C(=O)O)CCC3)cc2COC2Cc3ccccc3C2)cc(OC)c1C` [Compound 110, 1-((2-(((2,3-dihydro-1H-inden-2-yl)oxy)methyl)-3′,5′-dimethoxy-4′-methyl-[1,1′-biphenyl]-4-yl)amino)cyclobutane-1-carboxylic acid] was tested, and the IC50 [1] was 152 nM and the IC50 [2] was 100 to 1000 nM.
`COc1cc(-c2ccc(NC3(C(=O)O)CCOCC3)cc2COC2Cc3ccccc3C2)cc(OC)c1C` [Compound 111, 4-({2-[(2,3-dihydro-1H-inden-2-yloxy)methyl]-3′,5′-dimethoxy-4′-methyl-[1,1′-biphenyl]-4-yl}amino)oxane-4-carboxylic acid] showed an IC50 [1] of 19.8 nM and an IC50 [2] of under 100 nM.
`COc1cc(-c2ccc(NC3(C(=O)O)CCCC3)cc2COC2Cc3ccccc3C2)cc(OC)c1C` [Compound 112] gave an IC50 [1] of 188 nM and an IC50 [2] of 100 to 1000 nM.
Molecule `CCOc1cc(-c2ccc(NCCC(=O)O)cc2COC2Cc3ccccc3C2)cc(OCC)c1C` [Compound 113] has an IC50 [1] of 7130 nM and an IC50 [2] of over 1000 nM.
`COc1cc(-c2ccc(NCCC(=O)O)cc2OCC2(C)Oc3ccccc3O2)cc(OC)c1C` [Compound 115] was tested, and the IC50 [1] was 6820 nM and the IC50 [2] was over 1000 nM.
In the case of `COc1cc(-c2ccc(NCC(C)C(=O)O)cc2COC2Cc3ccccc3C2)cc(OC)c1C` (stereo not shown) [Compound 116], the IC50 [1] is reported as 2160 nM and the IC50 [2] is reported as over 1000 nM.
`COc1cc(-c2ccc(OC3(C(=O)O)CC3)cc2COC2Cc3ccccc3C2)cc(OC)c1C` [Compound 117, 1-({2-[(2,3-dihydro-1H-inden-2-yloxy)methyl]-3′,5′-dimethoxy-4′-methyl-[1,1′-biphenyl]-4-yl}oxy)cyclopropane-1-carboxylic acid] showed an IC50 [1] of 60.5 nM and an IC50 [2] of under 100 nM.
Work on `COc1cc(-c2ccc(C3(C(=O)O)CC3)cc2COC2Cc3ccccc3C2)cc(OC)c1C` [Compound 118, 1-{2-[(2,3-dihydro-1H-inden-2-yloxy)methyl]-3′,5′-dimethoxy-4′-methyl-[1,1′-biphenyl]-4-yl}cyclopropane-1-carboxylic acid] yielded an IC50 [1] of 96.4 nM and an IC50 [2] of under 100 nM.
`COc1cc(-c2ccc(NC3(C(=O)O)C[C@@H]3C)cc2COC2Cc3ccccc3C2)cc(OC)c1C` (stereo partly drawn) [Compound 119, (2S)-1-((2-(((2,3-dihydro-1H-inden-2-yl)oxy)methyl)-3′,5′-dimethoxy-4′-methyl-[1,1′-biphenyl]-4-yl)amino)-2-methylcyclopropane-1-carboxylic acid] was tested, and the IC50 [1] was 35.6 nM and the IC50 [2] was under 100 nM.
`COc1cc(-c2ccc(NC3(C(=O)O)CC(F)(F)C3)cc2COC2Cc3ccccc3C2)cc(OC)c1C` [Compound 120] showed an IC50 [1] of 57 nM and an IC50 [2] of under 100 nM.
`COc1cc(-c2ccc(NC3(C(=O)O)CC3)cc2COC2Cc3ccccc3C2)cc(OC)c1C(C)=O` [Compound 121, 1-({4′-acetyl-2-[(2,3-dihydro-1H-inden-2-yloxy)methyl]-3′,5′-dimethoxy-[1,1′-biphenyl]-4-yl}amino)cyclopropane-1-carboxylic acid] was tested, and the IC50 [1] was 13.5 nM and the IC50 [2] was under 100 nM.
`COc1cc(-c2ccc(NC3(C(=O)O)CC3)cc2COC2Cc3ccccc3C2)c(C)c(OC)c1C(C)=O` [Compound 122] showed an IC50 [1] of 112 nM and an IC50 [2] of 100 to 1000 nM.
`COc1cc(-c2ccc(NC3(C(=O)O)CCOCC3)cc2COC2Cc3ccccc3C2)cc(OC)c1C(C)=O` [Compound 123] was tested, and the IC50 [1] was 14.8 nM and the IC50 [2] was under 100 nM.
In the case of `COc1cc(-c2ccc(NC3(C(=O)O)CCOCC3)cc2COC2CCCC2)cc(OC)c1C(C)=O` [Compound 124], the IC50 [1] is reported as 91.6 nM and the IC50 [2] is reported as under 100 nM.
`COc1cc(-c2ccc(NC3(C(=O)O)CCOCC3)cc2COC2Cc3ccccc3C2)cc(OC)c1C#N` [Compound 127] gave an IC50 [1] of 16.3 nM and an IC50 [2] of under 100 nM.
Work on `COc1cc(-c2ccc(NC3(C(=O)O)CN(C(C)=O)C3)cc2COC2Cc3ccccc3C2)cc(OC)c1C` [Compound 128] yielded an IC50 [1] of 31.4 nM and an IC50 [2] of under 100 nM.
`COC(=O)N1CC(Nc2ccc(-c3cc(OC)c(C)c(OC)c3)c(COC3Cc4ccccc4C3)c2)(C(=O)O)C1` [Compound 129] gave an IC50 [1] of 17.2 nM and an IC50 [2] of under 100 nM.
For `COc1cc(-c2ccc(NC3(C(=O)O)CC(O)C3)cc2COC2Cc3ccccc3C2)cc(OC)c1C` (stereo not shown) [Compound 130], the IC50 [1] was 191 nM and the IC50 [2] was 100 to 1000 nM.
In the case of `COc1cc(-c2ccc(NC3(C(=O)O)CC(O)C3)cc2COC2Cc3ccccc3C2)cc(OC)c1C` (stereo not shown) [Compound 131], the IC50 [1] is reported as 190 nM and the IC50 [2] is reported as 100 to 1000 nM.
With `COc1cc(-c2ccc(NC3(C(=O)O)CCOCC3)cc2CCC2(C)Oc3ccccc3O2)cc(OC)c1C` [Compound 132, 4-({3′,5′-dimethoxy-4′-methyl-2-[2-(2-methyl-1,3-benzodioxol-2-yl)ethyl]-[1,1′-biphenyl]-4-yl}amino)oxane-4-carboxylic acid] the IC50 [1] was 20.1 nM and the IC50 [2] was under 100 nM.
With `COc1cc(-c2ccc(NC3(C(=O)O)CCN(C(C)=O)CC3)cc2COC2Cc3ccccc3C2)cc(OC)c1C` [Compound 133] the IC50 [1] was 82.9 nM and the IC50 [2] was under 100 nM.
For `COc1cc(-c2ccc(NC3(C(=O)O)CCOCC3)cc2COC2CCCC2)cc(OC)c1C` [Compound 134, 4-({2-[(cyclopentyloxy)methyl]-3′,5′-dimethoxy-4′-methyl-[1,1′-biphenyl]-4-yl}amino)-oxane-4-carboxylic acid], the IC50 [1] was 90.6 nM and the IC50 [2] was under 100 nM.
